# Results reported in ChEMBL document CHEMBL1201861, “Genomics of Drug Sensitity in Cancer screening data, Wellcome Trust Sanger Institute”.
# Tests used:
# Assay in all cases: cells
# Format in all cases: functional, cell-based, Homo sapiens
# [1] = tested on: COLO-829; details: Homo sapiens, COLO-829
# Description: SANGER: Inhibition of human COLO-829 cell growth in a cell viability assay.
# [2] = tested on: DB; details: Homo sapiens, DB
# Description: SANGER: Inhibition of human DB cell growth in a cell viability assay.
# [3] = tested on: DEL; details: Homo sapiens, DEL;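 also: growth inhibition of the human DEL cell line, read out with a cell viability assay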
# Description: SANGER: Inhibition of human DEL cell growth in a cell viability assay.
# [4] = tested on: DOHH-2; details: Homo sapiens, DOHH-2;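 also: growth inhibition of human DOHH-2 cells, read out with a cell viability assay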
# Description: SANGER: Inhibition of human DOHH-2 cell growth in a cell viability assay.
# [5] = tested on: EC-GI-10; details: Homo sapiens, EC-GI-10
# Description: SANGER: Inhibition of human EC-GI-10 cell growth in a cell viability assay.
# [6] = tested on: EKVX; details: Homo sapiens, EKVX;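 also: growth inhibition of human EKVX cells, read out with a cell viability assay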
# Description: SANGER: Inhibition of human EKVX cell growth in a cell viability assay.
# [7] = tested on: ES4; details: Homo sapiens, ES4;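 also: growth inhibition of human ES4 cells, read out by a cell viability assay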
# Description: SANGER: Inhibition of human ES4 cell growth in a cell viability assay.
# [8] = tested on: EW-18; details: Homo sapiens, EW-18;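 also: growth inhibition of EW-18 cells, read out by a cell viability assay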
# Description: SANGER: Inhibition of human EW-18 cell growth in a cell viability assay.
# [9] = tested on: EW-24; details: Homo sapiens, EW-24;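 also: human EW-24 cancer cell line, growth inhibition read out via a cell viability assay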
# Description: SANGER: Inhibition of human EW-24 cell growth in a cell viability assay.
# [10] = tested on: GR-ST; details: Homo sapiens, GR-ST
# Description: SANGER: Inhibition of human GR-ST cell growth in a cell viability assay.
# [11] = tested on: HCC1187; details: Homo sapiens, HCC1187;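 also: growth inhibition of HCC1187 cells, read out with a cell viability assay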
# Description: SANGER: Inhibition of human HCC1187 cell growth in a cell viability assay.
# [12] = tested on: HCC2218; details: Homo sapiens, HCC2218;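 also: cell viability assay read-out, with IC50 given as the concentration that inhibits growth of the cell line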
# Description: SANGER: Inhibition of human HCC2218 cell growth in a cell viability assay.
# [13] = tested on: HT-144; details: Homo sapiens, HT-144
# Description: SANGER: Inhibition of human HT-144 cell growth in a cell viability assay.
# [14] = tested on: IST-SL1; details: Homo sapiens, IST-SL1;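 also: growth inhibition of human IST-SL1 cells, read out with a cell viability assay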
# Description: SANGER: Inhibition of human IST-SL1 cell growth in a cell viability assay.
# [15] = tested on: J-RT3-T3-5; details: Homo sapiens, J-RT3-T3-5;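 also: cell viability assay measuring growth inhibition of human J-RT3-T3-5 cells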
# Description: SANGER: Inhibition of human J-RT3-T3-5 cell growth in a cell viability assay.
# [16] = tested on: JVM-3; details: Homo sapiens, JVM-3;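 also: growth inhibition of human JVM-3 cells, read out with a cell viability assay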
# Description: SANGER: Inhibition of human JVM-3 cell growth in a cell viability assay.
# [17] = tested on: KALS-1; details: Homo sapiens, KALS-1;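 also: growth inhibition of KALS-1 cells, determined with a cell viability assay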
# Description: SANGER: Inhibition of human KALS-1 cell growth in a cell viability assay.
# [18] = tested on: KARPAS-45; details: Homo sapiens, KARPAS-45;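 also: inhibition of cell line growth, read out through a viability assay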
# Description: SANGER: Inhibition of human KARPAS-45 cell growth in a cell viability assay.
# [19] = tested on: KE-37; details: Homo sapiens, KE-37;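 also: growth inhibition of KE-37 cells, read out with a cell viability assay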
# Description: SANGER: Inhibition of human KE-37 cell growth in a cell viability assay.
# [20] = tested on: KGN; details: Homo sapiens, KGN;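 also: growth inhibition of KGN cells, read out with a cell viability assay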
# Description: SANGER: Inhibition of human KGN cell growth in a cell viability assay.
# [21] = tested on: KINGS-1; details: Homo sapiens, KINGS-1;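 also: cell viability assay measuring suppression of KINGS-1 cell growth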
# Description: SANGER: Inhibition of human KINGS-1 cell growth in a cell viability assay.
# [22] = tested on: LB373-MEL-D; details: Homo sapiens, LB373-MEL-D;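 also: growth inhibition of the cell line, read out in a cell viability assay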
# Description: SANGER: Inhibition of human LB373-MEL-D cell growth in a cell viability assay.
# [23] = tested on: LS-1034; details: Homo sapiens, LS-1034
# Description: SANGER: Inhibition of human LS-1034 cell growth in a cell viability assay.
# [24] = tested on: MFH-ino; details: Homo sapiens, MFH-ino;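 also: growth inhibition of human MFH-ino cells, read out by a cell viability assay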
# Description: SANGER: Inhibition of human MFH-ino cell growth in a cell viability assay.
# [25] = tested on: MMAC-SF; details: Homo sapiens, MMAC-SF;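 also: growth inhibition of human MMAC-SF cells, read out with a cell viability assay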
# Description: SANGER: Inhibition of human MMAC-SF cell growth in a cell viability assay.
# [26] = tested on: MN-60; details: Homo sapiens, MN-60;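 also: growth inhibition of the MN-60 cell line, determined with a cell viability assay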
# Description: SANGER: Inhibition of human MN-60 cell growth in a cell viability assay.
# [27] = tested on: MOLT-16; details: Homo sapiens, MOLT-16;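 also: growth inhibition of human MOLT-16 cells, read out with a cell viability assay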
# Description: SANGER: Inhibition of human MOLT-16 cell growth in a cell viability assay.
# [28] = tested on: NB5; details: Homo sapiens, NB5;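 also: growth inhibition of NB5 cells, read out as cell viability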
# Description: SANGER: Inhibition of human NB5 cell growth in a cell viability assay.
# [29] = tested on: NCI-H1355; details: Homo sapiens, NCI-H1355;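 also: growth inhibition of human NCI-H1355 cells, read out by a cell viability assay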
# Description: SANGER: Inhibition of human NCI-H1355 cell growth in a cell viability assay.
# [30] = tested on: NCI-H1581; details: Homo sapiens, NCI-H1581;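 also: cell growth inhibition read out by a viability assay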
# Description: SANGER: Inhibition of human NCI-H1581 cell growth in a cell viability assay.
# [31] = tested on: NCI-H1648; details: Homo sapiens, NCI-H1648;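 also: cell viability assay measuring inhibition of NCI-H1648 cell growth, from the Sanger screening data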
# Description: SANGER: Inhibition of human NCI-H1648 cell growth in a cell viability assay.
# [32] = tested on: SNU1; details: Homo sapiens, SNU1;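 also: growth inhibition of human NCI-SNU-1 cells, measured with a cell viability assay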
# Description: SANGER: Inhibition of human NCI-SNU-1 cell growth in a cell viability assay.
# [33] = tested on: NOMO-1; details: Homo sapiens, NOMO-1;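 also: growth inhibition of human NOMO-1 cells measured by a cell viability assay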
# Description: SANGER: Inhibition of human NOMO-1 cell growth in a cell viability assay.
# [34] = tested on: RH-1; details: Homo sapiens, RH-1;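 also: growth inhibition of human RH-1 cells, read out with a cell viability assay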
# Description: SANGER: Inhibition of human RH-1 cell growth in a cell viability assay.
# [35] = tested on: RKO; details: Homo sapiens, RKO;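 also: growth inhibition of human RKO cells, read out with a cell viability assay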
# Description: SANGER: Inhibition of human RKO cell growth in a cell viability assay.
# [36] = tested on: RXF 393; details: Homo sapiens, RXF 393;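 also: growth inhibition of human RXF 393 cells, read out with a cell viability assay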
# Description: SANGER: Inhibition of human RXF393 cell growth in a cell viability assay.
# [37] = tested on: Ramos-2G6-4C10; details: Homo sapiens, Ramos-2G6-4C10;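 also: growth inhibition of the cell line, measured by a cell viability read-out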
# Description: SANGER: Inhibition of human Ramos-2G6-4C10 cell growth in a cell viability assay.
# [38] = tested on: SF-268; details: Homo sapiens, SF-268;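 also: growth inhibition of SF-268 cells determined with a cell viability assay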
# Description: SANGER: Inhibition of human SF268 cell growth in a cell viability assay.
# [39] = tested on: SNB-75; details: Homo sapiens, SNB-75;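 also: cell viability assay measuring growth inhibition of human SNB-75 cells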
# Description: SANGER: Inhibition of human SNB75 cell growth in a cell viability assay.
# [40] = tested on: SW684; details: Homo sapiens, SW684;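 also: growth inhibition of human SW684 cells, measured by a cell viability assay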
# Description: SANGER: Inhibition of human SW684 cell growth in a cell viability assay.
# [41] = tested on: A101D; details: Homo sapiens, A101D;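 also: growth inhibition of the cell line, measured with a viability assay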
# Description: SANGER: Inhibition of human A101D cell growth in a cell viability assay.
# [42] = tested on: A253 cell line; details: Homo sapiens, A253;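 also: growth inhibition of A253 cells, read out with a cell viability assay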
# Description: SANGER: Inhibition of human A253 cell growth in a cell viability assay.
# [43] = tested on: A704; details: Homo sapiens, A704;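 also: growth inhibition of human A704 cells, read out with a cell viability assay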
# Description: SANGER: Inhibition of human A704 cell growth in a cell viability assay.
# [44] = tested on: BB30-HNC; details: Homo sapiens, BB30-HNC;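 also: growth inhibition of the cultured cell line, read out by a cell viability assay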
# Description: SANGER: Inhibition of human BB30-HNC cell growth in a cell viability assay.
# [45] = tested on: C2BBe1; details: Homo sapiens, C2BBe1;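 also: growth inhibition of C2BBe1 cells, read out through a viability assay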
# Description: SANGER: Inhibition of human C2BBe1 cell growth in a cell viability assay.
# [46] = tested on: no-10; details: Homo sapiens;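 also: growth inhibition of no-10 cells, read out with a cell viability assay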
# Description: SANGER: Inhibition of human no-10 cell growth in a cell viability assay.
# [47] = tested on: CCRF-CEM; details: Homo sapiens, CCRF-CEM;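 also: inhibition of CCRF-CEM cell growth, measured by a cell viability assay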
# Description: SANGER: Inhibition of human CCRF-CEM cell growth in a cell viability assay.
# [48] = tested on: COLO-320-HSR; details: Homo sapiens, COLO-320-HSR;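 also: growth inhibition of COLO-320-HSR cells, determined with a cell viability assay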
# Description: SANGER: Inhibition of human COLO-320-HSR cell growth in a cell viability assay.
structure (smiles),measurement,setting,value
N[C@@H](CSC(c1ccccc1)(c1ccccc1)c1ccccc1)C(=O)O [S-TRITYL-L-CYSTEINE],IC50,[1],> 5.12 µM
same,IC50,[2],> 5.12 µM
same,IC50,[3],1410 nM
same,IC50,[4],867 nM
same,IC50,[5],> 5.12 µM
same,IC50,[6],> 5.12 µM
same,IC50,[7],> 5120 nM
same,IC50,[8],> 5.12 µM
same,IC50,[9],> 5.12 µM
same,IC50,[10],2970 nM
same,IC50,[11],> 5120 nM
same,IC50,[12],> 5.12 µM
same,IC50,[13],310 nM
same,IC50,[14],4.34 µM
same,IC50,[15],970 nM
same,IC50,[16],> 5.12 µM
same,IC50,[17],1320 nM
same,IC50,[18],1690 nM
same,IC50,[19],430 nM
same,IC50,[20],622 nM
same,IC50,[21],2160 nM
same,IC50,[22],2840 nM
same,IC50,[23],2780 nM
same,IC50,[24],471 nM
same,IC50,[25],2690 nM
same,IC50,[26],> 5.12 µM
same,IC50,[27],1890 nM
same,IC50,[28],> 5120 nM
same,IC50,[29],928 nM
same,IC50,[30],3.6 µM
same,IC50,[31],602 nM
same,IC50,[32],> 5.12 µM
same,IC50,[33],> 5.12 µM
same,IC50,[34],> 5120 nM
same,IC50,[35],677 nM
same,IC50,[36],> 5120 nM
same,IC50,[37],1550 nM
same,IC50,[38],3.15 µM
same,IC50,[39],2770 nM
same,IC50,[40],> 5.12 µM
same,IC50,[41],1730 nM
same,IC50,[42],3.71 µM
same,IC50,[43],> 5120 nM
same,IC50,[44],1190 nM
same,IC50,[45],> 5120 nM
same,IC50,[46],1960 nM
same,IC50,[47],2110 nM
same,IC50,[48],894 nM
COc1cc(-c2nn([C@H]3CC[C@H](N4CCN(C(C)=O)CC4)CC3)c3ncnc(N)c23)ccc1NC(=O)c1cc2ccccc2n1C,IC50,[1],> 5.12 µM
same,IC50,[2],> 5.12 µM
same,IC50,[3],> 5120 nM
same,IC50,[4],39.1 nM
same,IC50,[5],> 5.12 µM
same,IC50,[6],> 5.12 µM
same,IC50,[7],> 5120 nM
same,IC50,[8],> 5.12 µM
same,IC50,[9],> 5.12 µM
same,IC50,[10],> 5120 nM
same,IC50,[11],> 5120 nM
same,IC50,[12],> 5.12 µM
same,IC50,[13],> 5120 nM
same,IC50,[14],> 5.12 µM
same,IC50,[15],> 5120 nM
same,IC50,[16],> 5.12 µM
same,IC50,[17],2530 nM
same,IC50,[18],> 5120 nM
same,IC50,[19],> 5120 nM
same,IC50,[20],887 nM
same,IC50,[21],> 5120 nM
same,IC50,[22],> 5120 nM
same,IC50,[23],> 5120 nM
same,IC50,[24],1160 nM
same,IC50,[25],> 5120 nM
same,IC50,[26],> 5.12 µM
same,IC50,[27],> 5120 nM
same,IC50,[28],> 5120 nM
same,IC50,[29],> 5120 nM
same,IC50,[30],> 5.12 µM
same,IC50,[31],387 nM
same,IC50,[32],> 5.12 µM
same,IC50,[33],> 5.12 µM
same,IC50,[34],> 5120 nM
same,IC50,[35],3460 nM
same,IC50,[36],1120 nM
same,IC50,[37],> 5120 nM
same,IC50,[38],3.96 µM
same,IC50,[39],340 nM
same,IC50,[40],> 5.12 µM
same,IC50,[41],3710 nM
same,IC50,[42],> 5.12 µM
same,IC50,[43],1150 nM
same,IC50,[44],874 nM
same,IC50,[45],757 nM
same,IC50,[46],2180 nM
same,IC50,[47],> 5120 nM
same,IC50,[48],> 5120 nM
COc1cc2ncn(-c3cc(OCc4ccccc4C(F)(F)F)c(C(N)=O)s3)c2cc1OC [GW843682X],IC50,[1],> 0.256 µM
same,IC50,[2],> 0.256 µM
same,IC50,[3],19.9 nM
same,IC50,[4],60.8 nM
same,IC50,[5],> 0.256 µM
same,IC50,[6],> 0.256 µM
same,IC50,[7],18.4 nM
same,IC50,[8],> 0.256 µM
same,IC50,[9],> 0.256 µM
same,IC50,[10],84 nM
same,IC50,[11],122 nM
same,IC50,[12],> 0.256 µM
same,IC50,[13],16.4 nM
same,IC50,[14],> 0.256 µM
same,IC50,[15],21.2 nM
same,IC50,[16],> 0.256 µM
same,IC50,[17],22.5 nM
same,IC50,[18],6.13 nM
same,IC50,[19],4.77 nM
same,IC50,[20],33.2 nM
same,IC50,[21],149 nM
same,IC50,[22],149 nM
same,IC50,[23],59.7 nM
same,IC50,[24],35.5 nM
same,IC50,[25],> 256 nM
same,IC50,[26],> 0.256 µM
same,IC50,[27],31.5 nM
same,IC50,[28],86.2 nM
same,IC50,[29],11.9 nM
same,IC50,[30],0.0305 µM
same,IC50,[31],14.4 nM
same,IC50,[32],> 0.256 µM
same,IC50,[33],> 0.256 µM
same,IC50,[34],242 nM
same,IC50,[35],17.2 nM
same,IC50,[36],105 nM
same,IC50,[37],37.4 nM
same,IC50,[38],0.083 µM
same,IC50,[39],97.9 nM
same,IC50,[40],> 0.256 µM
same,IC50,[41],11.3 nM
same,IC50,[42],0.0532 µM
same,IC50,[43],> 256 nM
same,IC50,[44],34.1 nM
same,IC50,[45],> 256 nM
same,IC50,[46],20.7 nM
same,IC50,[47],14.8 nM
same,IC50,[48],28.1 nM
